In US8092842B2, “Extraction of phytochemicals by enzymatic hydrolysis” (Pos Pilot Plant Corporation, priority 2007, dated 2012):

Tested on: lymphocytes isolated from Balb/C mice
Test: lymphocyte cell proliferation assay
Type: cell-based
Details: LPS at 1 μg/ml (table prints concentration n/a)
Experimental: The effects of the ginseng extracts produced during these studies, on cell proliferation of lymphocytes isolated from Balb/C mice were assessed by the methods disclosed in Chapters 2 and 3 in Current Protocols in Immunology, (Coligan et al., Eds, 2007, John Wiley & Sons). A first positive control was lipopolysaccharide (LPS) at a concentration of 1 μg/ml. LPS (Prod. L4641) was supplied by Sigma-Aldrich Canada (Oakville, ON, Canada). A commercially available poly-furanosyl-pyranosyl-saccharide-rich ginseng extract, Cold-FX® (Cold-FX is a registered trademark of CV Technologies Inc., Edmonton, Alberta, Canada), was obtained from a local supermarket, and was used for comparison as a second positive control. The effects of the positive controls and the ginseng extracts produced by the three studies described herein on cell proliferation are shown in Table 1. […]
The bioactivity of the dried ginseng extract produced with the pilot scale process disclosed herein was assessed using the assay, related methods, positive and negative controls as described in Example 1.
The biological activity of the dried ginseng extracts produced from alcohol-washed dried ginseng meal during the first study of this example was assessed using the assay and methods described in Example 1, and the results compared to the positive control #2 described in Example 1.

Substance: lipopolysaccharide [Positive control #1 (LPS)]
- Optical Density (lymphocyte cell proliferation): 0.361
